The target in experiment [1] is T1, human α1G T-type channels (Homo sapiens, UniProt O43497).
T1 construct: expressed in transfected cells; host or cells: HEK 293
Nature of the experiment: T-type calcium channel block, whole cell patch clamp (α1G). In kind it is cell-based. The note with it: HEK cells stably expressing human α1G; mainly non-inactivated protocol; values above 10 μM represented as 10 μM, values below 0.30 μM represented as 0.30 μM. The procedure, abridged: (§1)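 Whole-cell patch clamp was run on HEK293 cells stably expressing human α1G or α1H. Cells were held at −110 mV and given a 1 s pre-pulse to −100 mV (non-inactivating protocol) before a 50 ms test pulse to −40 mV. Compounds were applied by gravity in external solution with 0.1-0.01% DMSO, and IC50 values are in μM, capped at 10 μM.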
Background: Patch clamp records ionic current or voltage across a cell membrane.

For experiment [2], the target named is T2, human α1H T-type channels (Homo sapiens, UniProt O95180).
T2 construct: expressed in transfected cells; host or cells: HEK 293
In words: T-type calcium channel block, whole cell patch clamp (α1H). Format: cell-based. The note with it: HEK cells stably expressing human α1H; mainly non-inactivated protocol; values above 10 μM represented as 10 μM. In outline:
as §1

The structures appear in SMILES notation. Where only a bound is given, the exact number is not on record here.

T1 sequence (O43497 whole entry): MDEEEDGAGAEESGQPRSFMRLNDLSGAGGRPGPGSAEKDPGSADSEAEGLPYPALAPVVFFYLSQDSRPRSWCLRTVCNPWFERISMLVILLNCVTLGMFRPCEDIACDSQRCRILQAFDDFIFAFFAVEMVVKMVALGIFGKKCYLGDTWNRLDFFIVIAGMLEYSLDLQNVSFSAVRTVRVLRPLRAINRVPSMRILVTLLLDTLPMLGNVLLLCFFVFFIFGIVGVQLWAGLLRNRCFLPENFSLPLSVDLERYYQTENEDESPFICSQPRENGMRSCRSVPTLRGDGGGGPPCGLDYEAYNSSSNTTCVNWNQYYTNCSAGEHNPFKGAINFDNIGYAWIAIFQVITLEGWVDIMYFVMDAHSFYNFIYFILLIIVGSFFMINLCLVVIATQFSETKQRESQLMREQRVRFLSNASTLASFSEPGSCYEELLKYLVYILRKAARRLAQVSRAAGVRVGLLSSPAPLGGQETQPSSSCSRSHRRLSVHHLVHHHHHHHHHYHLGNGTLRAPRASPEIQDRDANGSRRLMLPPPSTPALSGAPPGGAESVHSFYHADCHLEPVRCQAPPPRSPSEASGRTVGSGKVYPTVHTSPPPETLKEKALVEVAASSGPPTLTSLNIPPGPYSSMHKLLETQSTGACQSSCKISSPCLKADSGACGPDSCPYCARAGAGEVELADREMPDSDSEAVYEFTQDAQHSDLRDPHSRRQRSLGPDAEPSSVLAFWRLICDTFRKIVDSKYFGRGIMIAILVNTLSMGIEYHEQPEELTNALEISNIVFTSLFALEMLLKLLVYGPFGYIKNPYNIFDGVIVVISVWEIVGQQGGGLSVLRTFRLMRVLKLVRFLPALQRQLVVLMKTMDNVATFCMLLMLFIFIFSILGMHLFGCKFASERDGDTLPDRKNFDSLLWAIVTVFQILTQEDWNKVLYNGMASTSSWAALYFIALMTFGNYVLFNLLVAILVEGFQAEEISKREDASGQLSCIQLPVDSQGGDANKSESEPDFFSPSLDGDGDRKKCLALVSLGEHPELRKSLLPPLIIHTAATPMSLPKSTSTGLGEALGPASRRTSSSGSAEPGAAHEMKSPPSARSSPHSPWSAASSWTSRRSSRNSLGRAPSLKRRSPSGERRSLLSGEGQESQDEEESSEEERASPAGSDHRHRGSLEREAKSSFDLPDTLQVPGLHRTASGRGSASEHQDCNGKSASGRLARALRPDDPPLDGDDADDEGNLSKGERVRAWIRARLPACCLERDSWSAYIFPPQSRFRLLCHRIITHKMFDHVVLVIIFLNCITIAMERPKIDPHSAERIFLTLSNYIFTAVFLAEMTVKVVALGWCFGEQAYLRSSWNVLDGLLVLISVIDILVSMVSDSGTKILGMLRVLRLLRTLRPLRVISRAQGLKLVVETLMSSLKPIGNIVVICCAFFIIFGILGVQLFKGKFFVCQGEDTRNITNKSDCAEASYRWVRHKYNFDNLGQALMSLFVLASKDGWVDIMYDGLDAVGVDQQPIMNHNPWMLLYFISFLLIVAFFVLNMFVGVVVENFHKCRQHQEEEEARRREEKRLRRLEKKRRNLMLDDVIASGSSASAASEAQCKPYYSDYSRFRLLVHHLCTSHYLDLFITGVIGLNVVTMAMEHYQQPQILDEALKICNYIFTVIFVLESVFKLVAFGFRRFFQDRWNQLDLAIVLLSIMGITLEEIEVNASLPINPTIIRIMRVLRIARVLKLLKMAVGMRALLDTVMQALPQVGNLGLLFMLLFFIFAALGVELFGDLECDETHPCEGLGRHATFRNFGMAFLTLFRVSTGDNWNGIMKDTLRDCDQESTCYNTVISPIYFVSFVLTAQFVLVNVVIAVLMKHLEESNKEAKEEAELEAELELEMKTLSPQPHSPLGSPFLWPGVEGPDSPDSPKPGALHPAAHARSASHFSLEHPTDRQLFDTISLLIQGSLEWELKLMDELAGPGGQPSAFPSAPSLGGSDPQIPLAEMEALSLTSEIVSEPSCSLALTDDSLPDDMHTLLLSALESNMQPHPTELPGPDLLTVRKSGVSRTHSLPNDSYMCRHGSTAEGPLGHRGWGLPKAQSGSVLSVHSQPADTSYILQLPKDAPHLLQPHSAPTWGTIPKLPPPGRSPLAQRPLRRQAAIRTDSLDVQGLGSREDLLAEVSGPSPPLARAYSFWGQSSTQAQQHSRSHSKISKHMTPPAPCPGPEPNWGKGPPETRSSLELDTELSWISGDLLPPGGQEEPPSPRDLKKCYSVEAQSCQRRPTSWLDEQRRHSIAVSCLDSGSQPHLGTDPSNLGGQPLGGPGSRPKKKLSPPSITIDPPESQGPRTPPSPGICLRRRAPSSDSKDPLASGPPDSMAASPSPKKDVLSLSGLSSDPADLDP
T2 sequence (O95180 whole entry): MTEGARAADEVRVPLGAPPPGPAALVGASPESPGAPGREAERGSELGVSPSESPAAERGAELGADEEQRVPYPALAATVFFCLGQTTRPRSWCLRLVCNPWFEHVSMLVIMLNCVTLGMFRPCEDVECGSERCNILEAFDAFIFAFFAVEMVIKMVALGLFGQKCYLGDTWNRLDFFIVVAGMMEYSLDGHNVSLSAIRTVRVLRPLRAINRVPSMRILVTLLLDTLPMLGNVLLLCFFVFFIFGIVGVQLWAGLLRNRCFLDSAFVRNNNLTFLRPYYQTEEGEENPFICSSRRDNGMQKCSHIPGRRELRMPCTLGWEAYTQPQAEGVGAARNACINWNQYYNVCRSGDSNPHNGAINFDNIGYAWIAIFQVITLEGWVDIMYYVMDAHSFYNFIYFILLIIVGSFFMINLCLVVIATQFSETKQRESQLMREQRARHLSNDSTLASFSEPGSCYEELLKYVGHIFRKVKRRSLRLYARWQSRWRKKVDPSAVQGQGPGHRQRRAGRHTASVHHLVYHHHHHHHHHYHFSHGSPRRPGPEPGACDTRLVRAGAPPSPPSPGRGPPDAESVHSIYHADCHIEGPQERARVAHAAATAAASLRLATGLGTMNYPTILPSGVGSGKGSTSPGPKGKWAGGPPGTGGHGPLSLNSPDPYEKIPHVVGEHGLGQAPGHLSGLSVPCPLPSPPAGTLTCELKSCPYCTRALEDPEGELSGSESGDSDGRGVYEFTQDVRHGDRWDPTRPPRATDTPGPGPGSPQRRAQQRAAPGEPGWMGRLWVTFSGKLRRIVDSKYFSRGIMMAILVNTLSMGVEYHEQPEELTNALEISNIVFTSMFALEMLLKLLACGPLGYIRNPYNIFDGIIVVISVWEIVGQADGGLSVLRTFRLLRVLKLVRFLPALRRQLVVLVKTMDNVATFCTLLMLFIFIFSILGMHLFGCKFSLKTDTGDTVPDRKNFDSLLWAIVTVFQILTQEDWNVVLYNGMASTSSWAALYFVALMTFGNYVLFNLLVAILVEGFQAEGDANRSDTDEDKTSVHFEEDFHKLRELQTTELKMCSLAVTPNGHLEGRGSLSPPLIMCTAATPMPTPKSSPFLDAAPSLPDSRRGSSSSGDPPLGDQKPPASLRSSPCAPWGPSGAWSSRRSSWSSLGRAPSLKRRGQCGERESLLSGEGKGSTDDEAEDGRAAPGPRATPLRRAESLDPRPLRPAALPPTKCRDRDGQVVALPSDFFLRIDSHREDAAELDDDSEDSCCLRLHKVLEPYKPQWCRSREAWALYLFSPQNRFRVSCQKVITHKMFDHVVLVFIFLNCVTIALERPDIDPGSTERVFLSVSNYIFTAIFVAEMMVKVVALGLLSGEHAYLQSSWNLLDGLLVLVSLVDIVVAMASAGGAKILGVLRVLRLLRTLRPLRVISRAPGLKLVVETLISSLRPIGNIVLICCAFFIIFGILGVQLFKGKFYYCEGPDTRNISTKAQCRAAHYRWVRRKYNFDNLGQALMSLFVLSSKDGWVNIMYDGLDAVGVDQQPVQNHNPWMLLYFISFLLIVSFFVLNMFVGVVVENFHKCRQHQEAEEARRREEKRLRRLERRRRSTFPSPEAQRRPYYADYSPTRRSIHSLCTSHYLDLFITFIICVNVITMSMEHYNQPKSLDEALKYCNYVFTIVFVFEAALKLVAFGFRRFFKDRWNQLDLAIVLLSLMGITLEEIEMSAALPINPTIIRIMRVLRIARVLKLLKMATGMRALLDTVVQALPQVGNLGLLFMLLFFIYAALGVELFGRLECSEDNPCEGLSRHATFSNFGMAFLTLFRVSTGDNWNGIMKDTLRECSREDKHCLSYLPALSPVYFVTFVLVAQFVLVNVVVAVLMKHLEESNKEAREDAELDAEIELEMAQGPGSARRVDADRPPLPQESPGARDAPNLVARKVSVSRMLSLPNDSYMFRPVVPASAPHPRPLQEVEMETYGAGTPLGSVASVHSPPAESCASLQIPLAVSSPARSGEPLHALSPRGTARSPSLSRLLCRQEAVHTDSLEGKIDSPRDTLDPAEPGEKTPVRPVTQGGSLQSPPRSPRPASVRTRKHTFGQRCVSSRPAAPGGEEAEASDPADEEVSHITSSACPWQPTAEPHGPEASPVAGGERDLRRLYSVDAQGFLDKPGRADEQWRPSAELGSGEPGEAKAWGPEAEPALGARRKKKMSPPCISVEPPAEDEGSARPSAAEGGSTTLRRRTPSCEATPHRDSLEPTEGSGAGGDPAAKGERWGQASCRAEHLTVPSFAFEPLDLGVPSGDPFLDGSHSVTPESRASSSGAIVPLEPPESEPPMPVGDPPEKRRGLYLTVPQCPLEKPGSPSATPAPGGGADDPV

Turning to `COc1cc(C(=O)NC[C@H]2CC[C@@H](NCCNC(=O)OC(C)(C)C)CC2)cc(C(F)(F)F)c1` [Compound 100, tert-butyl 2-(cis-4-((3-methoxy-5-(trifluoromethyl)benzamido)methyl)cyclohexylamino)ethylcarbamate], the IC50 (as a rule, the concentration that gives 50% inhibition) came out at 1030 nM in experiment [1] and 850 nM in experiment [2].
For `CC(C)(C)CC(=O)NCCN[C@H]1CC[C@H](CNC(=O)c2cc(C(F)(F)F)cc(C(F)(F)F)c2)CC1` [Compound 101, N-((trans-4-(2-(3,3-dimethylbutanamido)ethylamino)cyclohexyl)methyl)-3,5-bis(trifluoromethyl)benzamide], the IC50 in experiment [1] worked out at 1510 nM; in experiment [2], 2050 nM.
With `O=C(CCC(F)(F)F)NCCN[C@H]1CC[C@H](CNC(=O)c2cc(C(F)(F)F)cc(C(F)(F)F)c2)CC1` [Compound 102, N-((trans-4-(2-(4,4,4-trifluorobutanamido)ethylamino)cyclohexyl)methyl)-3,5-bis(trifluoromethyl)benzamide], the values for the IC50 in experiment [1] and in experiment [2] were 970 nM and 1810 nM, respectively.
Take `CC(C)(C)OC(=O)N[C@H]1CC[C@@H](CC(=O)Nc2cc(C(F)(F)F)cc(C(F)(F)F)c2)CC1` [Compound 105, tert-butyl cis-4-(2-(3,5-bis(trifluoromethyl)phenylamino)-2-oxoethyl)cyclohexylcarbamate]: the IC50 was found to be 650 nM in experiment [1] and 6070 nM in experiment [2].
Consider `O=C(C[C@H]1CC[C@@H](NC(=O)[C@@H]2C[C@@H](c3ccccc3)CN2)CC1)NCc1cccc(OC(F)(F)F)c1` [Compound 116, (2S,4S)-N-(cis-4-(2-oxo-2-(3-(trifluoromethoxy)benzylamino)ethyl)cyclohexyl)-4-phenylpyrrolidine-2-carboxamide], for which the IC50 was 2890 nM in experiment [1] and at least 10000 nM in experiment [2].
On the same counts, the results for `NC1(C(=O)N[C@H]2CC[C@H](CC(=O)Nc3cc(C(F)(F)F)cc(C(F)(F)F)c3)CC2)CCCCC1` [Compound 117, 1-amino-N-(trans-4-(2-(3,5-bis(trifluoromethyl)phenylamino)-2-oxoethyl)cyclohexyl)cyclohexanecarboxamide] are 1070 nM and at least 10000 nM.
Turning to `O=C(C[C@H]1CC[C@H](NC(=O)[C@@H]2CCCN2)CC1)Nc1cc(C(F)(F)F)cc(C(F)(F)F)c1` [Compound 119, (S)-N-(trans-4-(2-(3,5-bis(trifluoromethyl)phenylamino)-2-oxoethyl)cyclohexyl)pyrrolidine-2-carboxamide], the IC50 in experiment [1] came out at 880 nM; in experiment [2], 1530 nM.
The corresponding values for `O=C(C[C@H]1CC[C@H](NC(=O)C2(c3ccccc3)CCNCC2)CC1)Nc1cc(C(F)(F)F)cc(C(F)(F)F)c1` [Compound 121, (S)-N-(trans-4-(2-(3,5-bis(trifluoromethyl)phenylamino)-2-oxoethyl)cyclohexyl)-4-phenylpiperidine-4-carboxamide] are 610 nM and at least 10000 nM.
On the same counts, the results for `N[C@H]1CCCC[C@H]1C(=O)N[C@H]1CC[C@H](CC(=O)Nc2cc(C(F)(F)F)cc(C(F)(F)F)c2)CC1` [Compound 122, (1R,2S)-2-amino-N-(trans-4-(2-(3,5-bis(trifluoromethyl)phenylamino)-2-oxoethyl)cyclohexyl)cyclohexanecarboxamide] are 840 nM and 3620 nM.
On to `O=C(C[C@H]1CC[C@H](NC(=O)[C@@H]2C[C@@H](c3ccccc3)CN2)CC1)Nc1cc(C(F)(F)F)cc(C(F)(F)F)c1` [Compound 123, (2S,4S)-N-(trans-4-(2-(3,5-bis(trifluoromethyl)phenylamino)-2-oxoethyl)cyclohexyl)-4-phenylpyrrolidine-2-carboxamide], for which the 50% inhibitory concentration (IC50) was at most 300 nM in experiment [1] and 2950 nM in experiment [2].
Take `NC1(C(=O)N[C@H]2CC[C@H](CC(=O)Nc3cc(C(F)(F)F)cc(C(F)(F)F)c3)CC2)CCCC1` [Compound 124, 1-amino-N-(trans-4-(2-(3,5-bis(trifluoromethyl)phenylamino)-2-oxoethyl)cyclohexyl)cyclopentanecarboxamide]: the figures for the IC50 in experiment [1] and in experiment [2] were 830 nM and at least 10000 nM, respectively.
The corresponding values for `O=C(NC[C@H]1CC[C@@H](NC(=O)[C@@H]2C[C@@H](c3ccccc3)CN2)CC1)c1cc(C(F)(F)F)cc(C(F)(F)F)c1` [Compound 125, (2S,4S)-N-(cis-4-((3,5-bis(trifluoromethyl)benzamido)methyl)cyclohexyl)-4-phenylpyrrolidine-2-carboxamide] are 940 nM and 2430 nM.
Regarding `O=C(NC[C@H]1CC[C@@H](NC(=O)[C@@H]2CC[C@H](c3ccccc3)N2)CC1)c1cc(C(F)(F)F)cc(C(F)(F)F)c1` [Compound 127, (2S,5R)-N-(cis-4-((3,5-bis(trifluoromethyl)benzamido)methyl)cyclohexyl)-5-phenylpyrrolidine-2-carboxamide], the concentration for half-maximal inhibition (IC50) in experiment [1] was determined as 1100 nM; in experiment [2] it was 4930 nM.
Regarding `Cc1ccc(-c2csc(NC(=O)C[C@H]3CC[C@@H](NC(=O)C4(c5ccccc5)CCNCC4)CC3)n2)cc1` [Compound 132, N-(cis-4-(2-oxo-2-(4-p-tolylthiazol-2-ylamino)ethyl)cyclohexyl)-4-phenylpiperidine-4-carboxamide], the IC50 was 1090 nM in experiment [1] and at least 10000 nM in experiment [2].
Regarding `O=C(NC[C@H]1CC[C@H](NC(=O)[C@@H]2CC[C@H](c3ccccc3)N2)CC1)c1cc(C(F)(F)F)cc(C(F)(F)F)c1` [Compound 135, (2S,5R)-N-(trans-4-((3,5-bis(trifluoromethyl)benzamido)methyl)cyclohexyl)-5-phenylpyrrolidine-2-carboxamide], the IC50 was found to be 1110 nM in experiment [1] and 5650 nM in experiment [2].
Regarding `O=C(NC[C@H]1CC[C@H](NC(=O)[C@H]2CC[C@@H](c3ccccc3)N2)CC1)c1cc(C(F)(F)F)cc(C(F)(F)F)c1` [Compound 137, (2R,5S)-N-(trans-4-((3,5-bis(trifluoromethyl)benzamido)methyl)cyclohexyl)-5-phenylpyrrolidine-2-carboxamide], the IC50 in experiment [1] stood at 700 nM; in experiment [2], 7850 nM.
For the compound `O=C(NC[C@H]1CC[C@@H](NC(=O)[C@H]2CC[C@@H](c3ccccc3)N2)CC1)c1cc(C(F)(F)F)cc(C(F)(F)F)c1` [Compound 139, (2R,5S)-N-(cis-4-((3,5-bis(trifluoromethyl)benzamido)methyl)cyclohexyl)-5-phenylpyrrolidine-2-carboxamide], the IC50 is 1070 nM in experiment [1] and 7060 nM in experiment [2].
As to `O=C(C[C@H]1CC[C@@H](NC(=O)[C@@H]2CCCN2)CC1)Nc1cc(C(F)(F)F)cc(C(F)(F)F)c1` [Compound 143, (S)-N-(cis-4-(2-(3,5-bis(trifluoromethyl)phenylamino)-2-oxoethyl)cyclohexyl)pyrrolidine-2-carboxamide], the results for the IC50 in experiment [1] and in experiment [2] were 1900 nM and 9940 nM, respectively.
As for `O=C(C[C@H]1CC[C@@H](NC(=O)[C@H]2CCCN2)CC1)Nc1cc(C(F)(F)F)cc(C(F)(F)F)c1` [Compound 146, (R)-N-(cis-4-(2-(3,5-bis(trifluoromethyl)phenylamino)-2-oxoethyl)cyclohexyl)pyrrolidine-2-carboxamide], the half-inhibitory concentration (IC50) in experiment [1] is 2790 nM; in experiment [2], 7870 nM.
The corresponding values for `CC(C)(C)C(O)CN[C@H]1CC[C@@H](CC(=O)Nc2cc(C(F)(F)F)cc(C(F)(F)F)c2)CC1` (stereo partly drawn) [Compound 150, N-(3,5-bis(trifluoromethyl)phenyl)-2-(cis-4-(2-hydroxy-3,3-dimethylbutylamino)cyclohexyl)acetamide] are at most 300 nM and 524 nM.

(Values after US20090298834A1, “4-(AMINOMETHYL)CYCLOHEXANAMINE DERIVATIVES AS CALCIUM CHANNEL BLOCKERS” (priority 2008, published 2009).)
